Values quoted from earlier work as cited in patent US11389549B2, “Diagnosis-treatment integrated nano-probe for 19F-MR/fluorescence multi-mode molecular imaging and drug-loading and preparation method and application of nano-probe” (Harbin Medical University, priority 2019, dated 2022).

solubility in water (water): insoluble to water
SMILES: C=CC(=O)Nc1cc(Nc2nccc(-c3cn(C)c4ccccc34)n2)c(OC)cc1N(C)CCN(C)C [AZD9291]
solubility in organic solvents (DMSO and other organic solvents): soluble to Dimethyl Sulfoxide (DMSO) and other organic solvents merely
